What was measured:
[1] = Plasma stability, cynomolgus monkey plasma; conditions: 2 μM, 37° C.
[2] = SD rat plasma
[3] = Plasma PK after single oral dose of AT-752, monkeys; type: in vivo, cynomolgus monkeys; conditions: monkeys, oral 300 mg/kg or 60 mg/kg
Experimental: Male cynomolgus monkeys were administered 300 mg/kg Compound 2 (AT-752). Blood samples were collected up to 24 hrs. post dose, plasma separated and analyzed for Compound 1 (AT-281), Compound 3 (AT-551), and Compound 6 (AT-273) by LC-MS/MS. Data are express as mean+/−SD (n=3-5/time point). The x-axis is time post the dose measured in hours and the y-axis is the plasma concentration of the metabolites measured in nanomoles/mL). The experimental procedure is provided in Example 14.
Male non-naïve cynomolgus monkeys (Hainan Jingang Laboratory Animal Co. Ltd., China), at least 2 kg body weight, were individually housed during the study in stainless steel mesh cages, provided ad libitum access to RO water, fed twice daily (except on the day of dosing when they were fed once) with ˜60 g Certified Monkey Diet each feed (Beijing Vital Keao Feed Co., Ltd., Beijing, China) and given daily treats of fresh fruit. They (n=5) were administered a dose of Compound 2 (AT-752) at 300 mg/kg in 40% PEG400, 10% solutol HS15, 50% 100 mM citrate buffer, pH 4.5 (v/v) by oral gavage, and blood samples (˜0.5 mL) were collected at 1, 2, 4, 8, 12 and 24 h post dose. Plasma was separated at each time point for pharmacokinetics, and stored at −70° C. […] Separately, three monkeys were given an oral dose of Compound 2 (AT-752) as powder in capsules at 60 mg/kg ([…] (AT-281) equivalent dose of 55 mg/kg), and blood samples collected at 12, 24 and 48 h post dose.
(§1) Pharmacokinetic measurements for FIGS. 11, 12, 13, 14, and 15 were analyzed using LC-MS/MS according to the protocol described herein. Plasma samples were prepared for MS analysis by adding internal standards and extracting with 20 volumes chilled ACN. After vortex (800 rpm for 10 min) and centrifugation (4,000 rpm, 15 min, 4° C.), the supernatants (25 μL) were diluted with an equal volume of H2O, mixed and spun again. After adding internal standards, the PBMC samples (10^6 cells) were lyzed with 300 μL MeOH/H2O (70:30, v/v) and 40 mM dibutylammonium acetate (DBAA), mixed by vortex and centrifuged (12,000 rpm, 15 min, 4° C.). Aliquots of the supernatants (35 μL) were dried under nitrogen and reconstituted in H2O, then mixed and spun again. […] A binary nonlinear gradient with mobile phases A (0.1% formic acid in water) and B (0.1% formic acid in ACN) were used to elute samples at 0.8 mL/min, with a run time of 5 min. […] A binary nonlinear gradient with mobile phases A (0.001% NHr H2O, 0.18 mM DBAA in H2O) and B (10 mM N,N-dimethyl-hexylamine, 3 mM NH4OAc in ACN/H2O (50.50, v/v)) were used to elute samples at 0.5 mL/min, with a run time of 3 min. Standards in 50% MeOH were used for calibration. […] Internal standards (ISS) as described previously (Good et al., Preclinical evaluation of AT-527, a novel guanosine nucleotide prodrug with potent, pan-genotypic activity against hepatitis C virus. PLos One 15:e02271045) were used to correct for variations in recovery.
(§2) Data analysis of the pharmacokinetic data generated according to Example 21 and presented in FIGS. 11, 12, 13, 14, and 15 was analyzed according to the procedure described herein. Plasma concentrations of Compound 1 (AT-281), Compound 3 (AT-551) and Compound 6 (AT-273) were subjected to non-compartmental pharmacokinetic analysis using Phoenix WinNonlin software (version 6.3 or above, Pharsight, Mountain View, CA). The linear/log trapezoidal rule was applied in obtaining the PK parameters.

[4] = Plasma stability, human plasma; conditions: 2 μM, 37° C.
[5] = Safety study in humans (SAD and MAD cohorts); type: in vivo, human
Experimental: Safety assessments including adverse events, standard clinical laboratory tests, vital sign measurements, electrocardiograms, and physical examinations were performed.

DENV-2 D2Y98P = type: in vivo, AG129 mice
[6] = Pharmacokinetic study in SAD cohorts; type: in vivo, human; conditions: South/Southeast/East Asian versus mostly Caucasian cohorts, 1000 mg
Experimental: as §1, §2

[7] = MAD 750 mg BID × 4 days plus one dose Day 5, 6 patients
[8] = MAD 750 mg TID × 4 days plus one dose Day 5, 6 patients
[9] = MAD 1000 mg QD × 7 days, 6 patients
[10] = SAD 1000 mg fasting, 6 patients
[11] = SAD 1000 mg, South/Southeast/East Asian origin, 6 patients
[12] = SAD 1500 mg fasting, 6 patients

SMILES: CNc1nc(N)nc2c1ncn2[C@@H]1O[C@H](CO[P@](=O)(N[C@@H](C)C(=O)OC(C)C)Oc2ccccc2)[C@@H](O)[C@@]1(C)F [Compound 2, isopropyl ((R)-(((2R,3R,4R,5R)-5-(2-amino-6-(methylamino)-9H-purin-9-yl)-4-fluoro-3-hydroxy-4-methyltetrahydrofuran-2-yl)methoxy)(phenoxy)phosphoryl)-L-alaninate]
- % of starting concentration remained after 120 min of incubation [1]: 98.2%
- drug remaining at the first time point (10 min of incubation) [2]: no drug remaining
- unusual or adverse clinical signs [3]: no such signs noted
- % of starting concentration remained after 120 min of incubation [4]: 93.5%
- Headache, subjects reporting [5, 7]: 1
- Nausea, subjects reporting [5, 7]: 1
- Vomiting, subjects reporting [5, 7]: 1
- Headache, subjects reporting [5, 8]: 0
- Nausea, subjects reporting [5, 8]: 0
- Vomiting, subjects reporting [5, 8]: 0
- Headache, subjects reporting [5, 9]: 0
- Nausea, subjects reporting [5, 9]: 0
- Vomiting, subjects reporting [5, 9]: 0
- Headache, subjects reporting ([5]; SAD 250 mg fasting, 6 patients): 0
- Nausea, subjects reporting ([5]; SAD 250 mg fasting, 6 patients): 0
- Vomiting, subjects reporting ([5]; SAD 250 mg fasting, 6 patients): 0
- Headache, subjects reporting ([5]; SAD 500 mg fasting, 7 patients): 2
- Nausea, subjects reporting ([5]; SAD 500 mg fasting, 7 patients): 0
- Vomiting, subjects reporting ([5]; SAD 500 mg fasting, 7 patients): 0
- Headache, subjects reporting ([5]; SAD 500 mg fed, 7 patients): 4
- Nausea, subjects reporting ([5]; SAD 500 mg fed, 7 patients): 1
- Vomiting, subjects reporting ([5]; SAD 500 mg fed, 7 patients): 0
- Headache, subjects reporting [5, 10]: 1
- Nausea, subjects reporting [5, 10]: 1
- Vomiting, subjects reporting [5, 10]: 1
- Headache, subjects reporting [5, 11]: 0
- Nausea, subjects reporting [5, 11]: 0
- Vomiting, subjects reporting [5, 11]: 0
- Headache, subjects reporting [5, 12]: 2
- Nausea, subjects reporting [5, 12]: 1
- Vomiting, subjects reporting [5, 12]: 2
- tolerability ([5]; healthy subjects, SAD 250-1500 mg and MAD cohorts, oral): well tolerated
- serious adverse events or discontinuations due to adverse events ([5]; healthy subjects, SAD and MAD cohorts): no serious adverse events or discontinuations due to adverse events were reported
- health scores versus vehicle control group (DENV-2 D2Y98P; Day 4 to Day 9 pi, p<0.001 by t-test): significantly better health scores
- Viremia versus vehicle only group (DENV-2 D2Y98P; Day 6 pi, 1000 mg/kg loading, 500 mg/kg BID 7 days oral, p=0.000014 by t-test): significantly lower than the vehicle only group
- weight loss versus vehicle control mice (DENV-2 D2Y98P; Days 5, 7 and 8 pi, p<0.001 by t-test): significantly reduced weight loss
- spleen viral load versus control group (DENV-2 D2Y98P; by Day 7 pi): not statistically different
- Viremia (DENV-2 D2Y98P; by Day 8 pi, virus still measurable in all surviving controls, p=0.0045): cleared in all treated animals
- survival (Kaplan-Meier) versus vehicle control group (DENV-2 D2Y98P; p=0.0004, Mantel-Cox log-rank test): significantly improved the survival
- pharmacokinetic ethnic sensitivity [6]: absence of pharmacokinetic ethnic sensitivity

Source: patent US20250082656A1, “DOSAGE REGIMENS FOR TREATMENT OF DENGUE INFECTION” (Atea Pharmaceuticals, Inc., priority 2022, published 2025)
